This passage reports EC50, IC50 and AC50 results from ChEMBL document CHEMBL1201862, “PubChem BioAssay data set” (2004).

Broadly, the EC50 is the midpoint of the concentration-response curve. As usually defined, the IC50 is the concentration at which inhibition is half-maximal. One may read the AC50 as the concentration at which the activity in the assay is half-maximal.

Test [1] has as its system HEK293. Briefly: NOD1 signaling inhibitors, primary screen, cell-based, luminescence, uHTS (AID 1578). Type of test: functional. Particulars: Homo sapiens.
For test [2], the system named is BJ. Briefly: cytotoxicity toward BJ-TERT fibroblasts, dose response, cell-based, RAS-independent, luminescence (AID 1933). Type of test: functional. Particulars: Homo sapiens.
In test [3] the test system is HEK293. Put plainly: cells. Type of test: functional, cell-based. Conditions: Homo sapiens.
Test [4] deals with BJ. Put plainly: cells. Type of test: functional, cell-based. Particulars: Homo sapiens.
Test [5] deals with HEK293. Briefly: cells. Type of test: functional, cell-based. Conditions: Homo sapiens. The source holds these as a separate data set.
Test [6] has as its target Nucleotide-binding oligomerization domain-containing protein 2 (Homo sapiens, UniProt Q9HC29). Put plainly: NOD2 signaling inhibitors, cell-based, luminescence, uHTS, HEK293 (AID 1566). Type of test: functional.
Test [7] relates to HEK293. Put plainly: NOD2 signaling inhibitors in MDP-stimulated cells, cell-based, uHTS, luminescence (AID 2001). Type of test: functional. Conditions: Homo sapiens.
Test [8] relates to HEK293. Briefly: cells. Type of test: functional, cell-based. Particulars: Homo sapiens. The source holds these as a separate data set.
Test [9] concerns BJ. Briefly: cytotoxicity toward BJ-TERT-LT-ST fibroblasts, dose response, cell-based, RAS-independent, luminescence (AID 1935).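 Note: BJ fibroblasts immortalized with TERT plus LT and ST oncogenes.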 Type of test: functional. Particulars: Homo sapiens.
Test [10] in a line: cytotoxicity toward DRD oncogenic fibroblasts, dose response, cell-based, non-viral oncogenic, luminescence (AID 1934). Type of test: functional. Particulars: Homo sapiens.
Test [11] has as its target T1, Microphthalmia-associated transcription factor (Homo sapiens, UniProt O75030).
T1 sequence (O75030 whole entry): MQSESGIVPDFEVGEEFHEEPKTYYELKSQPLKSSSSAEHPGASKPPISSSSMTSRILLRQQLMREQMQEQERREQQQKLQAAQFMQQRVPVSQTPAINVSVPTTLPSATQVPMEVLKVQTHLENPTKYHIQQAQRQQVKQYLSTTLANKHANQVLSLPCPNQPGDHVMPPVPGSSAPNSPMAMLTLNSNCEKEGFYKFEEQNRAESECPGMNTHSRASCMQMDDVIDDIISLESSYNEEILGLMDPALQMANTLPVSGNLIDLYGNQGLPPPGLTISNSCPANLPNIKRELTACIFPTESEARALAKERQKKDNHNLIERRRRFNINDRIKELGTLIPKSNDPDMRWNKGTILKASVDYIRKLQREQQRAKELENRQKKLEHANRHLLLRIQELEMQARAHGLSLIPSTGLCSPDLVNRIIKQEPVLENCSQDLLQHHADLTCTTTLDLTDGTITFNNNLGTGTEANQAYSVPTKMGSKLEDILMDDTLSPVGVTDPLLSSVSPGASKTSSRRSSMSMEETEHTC
Briefly: TRPM1 promoter luciferase signal decrease, dose response, MITF inhibitor project, cell-based, SK-MEL-5, cherry-picked, set 3 (AID 493073).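 Note: SK-MEL-5 melanoma cells with luciferase driven by the MITF target TRPM1 promoter.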 Type of test: functional.

The target in test [12] is T2, Replicative DNA helicase DnaB (Mycobacterium tuberculosis, UniProt P9WMR3).
T2 sequence (P9WMR3 whole entry): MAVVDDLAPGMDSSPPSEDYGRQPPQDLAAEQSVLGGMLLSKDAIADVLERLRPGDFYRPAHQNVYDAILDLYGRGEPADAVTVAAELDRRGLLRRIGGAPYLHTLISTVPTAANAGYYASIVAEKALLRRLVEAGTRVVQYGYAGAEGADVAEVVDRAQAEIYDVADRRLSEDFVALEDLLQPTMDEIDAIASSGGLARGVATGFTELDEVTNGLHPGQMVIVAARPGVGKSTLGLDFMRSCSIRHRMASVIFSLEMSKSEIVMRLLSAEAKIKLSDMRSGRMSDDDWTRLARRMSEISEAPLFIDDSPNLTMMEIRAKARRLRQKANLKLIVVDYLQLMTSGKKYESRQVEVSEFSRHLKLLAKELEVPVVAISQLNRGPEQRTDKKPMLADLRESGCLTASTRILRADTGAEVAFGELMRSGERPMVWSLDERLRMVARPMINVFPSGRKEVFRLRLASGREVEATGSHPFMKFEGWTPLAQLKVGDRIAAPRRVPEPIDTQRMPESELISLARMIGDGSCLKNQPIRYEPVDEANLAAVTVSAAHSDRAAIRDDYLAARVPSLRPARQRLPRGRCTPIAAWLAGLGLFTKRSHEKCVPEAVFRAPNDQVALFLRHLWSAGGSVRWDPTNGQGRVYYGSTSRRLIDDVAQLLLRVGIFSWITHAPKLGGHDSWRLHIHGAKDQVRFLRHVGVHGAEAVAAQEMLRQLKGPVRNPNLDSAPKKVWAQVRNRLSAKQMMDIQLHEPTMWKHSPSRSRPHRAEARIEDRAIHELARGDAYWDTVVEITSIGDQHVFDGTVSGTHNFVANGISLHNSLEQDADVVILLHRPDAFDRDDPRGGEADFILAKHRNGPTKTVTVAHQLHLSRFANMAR
Put plainly: DnaB intein splicing inhibitors, dose response, biochemical, cell-free fluorescence (AID 449749). Type of test: functional.

The next test concerns the target T3, Protein RecA (Mycobacterium tuberculosis, UniProt P9WHJ3).
T3 sequence (P9WHJ3 whole entry): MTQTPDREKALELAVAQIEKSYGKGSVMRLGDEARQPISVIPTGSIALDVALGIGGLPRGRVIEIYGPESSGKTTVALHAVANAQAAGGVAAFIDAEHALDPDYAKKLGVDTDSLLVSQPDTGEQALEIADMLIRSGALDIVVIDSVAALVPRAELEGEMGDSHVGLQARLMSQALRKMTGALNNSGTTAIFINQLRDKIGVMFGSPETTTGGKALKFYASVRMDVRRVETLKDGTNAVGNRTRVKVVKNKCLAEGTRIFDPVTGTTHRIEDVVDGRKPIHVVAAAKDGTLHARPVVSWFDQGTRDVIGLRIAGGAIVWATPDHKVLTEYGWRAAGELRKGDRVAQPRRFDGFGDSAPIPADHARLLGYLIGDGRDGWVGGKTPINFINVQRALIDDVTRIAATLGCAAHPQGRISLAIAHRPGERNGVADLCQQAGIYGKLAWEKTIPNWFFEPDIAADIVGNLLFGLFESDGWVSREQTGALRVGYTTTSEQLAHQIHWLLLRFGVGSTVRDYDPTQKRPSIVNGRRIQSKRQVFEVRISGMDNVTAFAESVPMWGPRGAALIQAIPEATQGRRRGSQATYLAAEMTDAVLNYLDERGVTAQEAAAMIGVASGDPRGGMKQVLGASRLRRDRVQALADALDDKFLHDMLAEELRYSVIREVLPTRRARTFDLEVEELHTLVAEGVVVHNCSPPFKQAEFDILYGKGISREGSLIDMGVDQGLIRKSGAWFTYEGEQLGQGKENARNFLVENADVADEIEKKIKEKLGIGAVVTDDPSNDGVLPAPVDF
Briefly: Fluorescence Cell-Free Homogeneous Dose Retest to Identify Inhibitors of RecA-Intein Splicing Activity. [Related pubchem assays (depositor defined):AID2097, AID2223, AID489010, AID492950]. Type of test: functional.

Test [13] deals with Glyceraldehyde-3-phosphate dehydrogenase (Homo sapiens, UniProt P04406).
Sequence of Glyceraldehyde-3-phosphate dehydrogenase (P04406 whole entry): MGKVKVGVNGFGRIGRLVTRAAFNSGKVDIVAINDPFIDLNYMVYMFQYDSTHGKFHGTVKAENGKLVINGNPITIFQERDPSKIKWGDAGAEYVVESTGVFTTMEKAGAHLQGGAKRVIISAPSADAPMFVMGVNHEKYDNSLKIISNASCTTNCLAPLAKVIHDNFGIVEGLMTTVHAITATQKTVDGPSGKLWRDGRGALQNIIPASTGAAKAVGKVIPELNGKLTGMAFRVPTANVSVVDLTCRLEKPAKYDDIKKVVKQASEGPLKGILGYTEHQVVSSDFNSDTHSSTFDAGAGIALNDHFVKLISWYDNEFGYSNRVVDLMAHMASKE
For test [14], the target named is T4, Alkaline phosphatase, tissue-nonspecific isozyme (Homo sapiens, UniProt P05186).
T4 sequence (P05186 whole entry): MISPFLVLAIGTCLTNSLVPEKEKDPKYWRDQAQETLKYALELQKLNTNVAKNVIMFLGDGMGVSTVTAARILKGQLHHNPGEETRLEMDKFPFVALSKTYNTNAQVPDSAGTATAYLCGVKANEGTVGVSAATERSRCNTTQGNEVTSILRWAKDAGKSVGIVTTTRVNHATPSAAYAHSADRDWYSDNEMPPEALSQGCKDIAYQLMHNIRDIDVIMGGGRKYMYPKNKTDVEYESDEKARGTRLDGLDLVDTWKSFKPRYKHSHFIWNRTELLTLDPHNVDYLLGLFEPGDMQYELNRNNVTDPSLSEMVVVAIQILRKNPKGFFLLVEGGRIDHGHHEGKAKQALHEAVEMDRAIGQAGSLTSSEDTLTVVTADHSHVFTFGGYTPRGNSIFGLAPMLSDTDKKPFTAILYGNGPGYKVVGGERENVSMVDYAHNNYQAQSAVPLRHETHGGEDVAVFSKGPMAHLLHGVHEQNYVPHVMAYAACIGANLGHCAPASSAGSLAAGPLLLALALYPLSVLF
Briefly: human TNAP enzyme inhibitors, SAR follow-up, biochemical, luminescent, dose response (AID 1056).

SMILES strings stand for the structures. Calls of active or inactive are those of the source. Bounds are passed on as bounds.

Sequence of Nucleotide-binding oligomerization domain-containing protein 2 (Q9HC29 whole entry, the tested form may be a part): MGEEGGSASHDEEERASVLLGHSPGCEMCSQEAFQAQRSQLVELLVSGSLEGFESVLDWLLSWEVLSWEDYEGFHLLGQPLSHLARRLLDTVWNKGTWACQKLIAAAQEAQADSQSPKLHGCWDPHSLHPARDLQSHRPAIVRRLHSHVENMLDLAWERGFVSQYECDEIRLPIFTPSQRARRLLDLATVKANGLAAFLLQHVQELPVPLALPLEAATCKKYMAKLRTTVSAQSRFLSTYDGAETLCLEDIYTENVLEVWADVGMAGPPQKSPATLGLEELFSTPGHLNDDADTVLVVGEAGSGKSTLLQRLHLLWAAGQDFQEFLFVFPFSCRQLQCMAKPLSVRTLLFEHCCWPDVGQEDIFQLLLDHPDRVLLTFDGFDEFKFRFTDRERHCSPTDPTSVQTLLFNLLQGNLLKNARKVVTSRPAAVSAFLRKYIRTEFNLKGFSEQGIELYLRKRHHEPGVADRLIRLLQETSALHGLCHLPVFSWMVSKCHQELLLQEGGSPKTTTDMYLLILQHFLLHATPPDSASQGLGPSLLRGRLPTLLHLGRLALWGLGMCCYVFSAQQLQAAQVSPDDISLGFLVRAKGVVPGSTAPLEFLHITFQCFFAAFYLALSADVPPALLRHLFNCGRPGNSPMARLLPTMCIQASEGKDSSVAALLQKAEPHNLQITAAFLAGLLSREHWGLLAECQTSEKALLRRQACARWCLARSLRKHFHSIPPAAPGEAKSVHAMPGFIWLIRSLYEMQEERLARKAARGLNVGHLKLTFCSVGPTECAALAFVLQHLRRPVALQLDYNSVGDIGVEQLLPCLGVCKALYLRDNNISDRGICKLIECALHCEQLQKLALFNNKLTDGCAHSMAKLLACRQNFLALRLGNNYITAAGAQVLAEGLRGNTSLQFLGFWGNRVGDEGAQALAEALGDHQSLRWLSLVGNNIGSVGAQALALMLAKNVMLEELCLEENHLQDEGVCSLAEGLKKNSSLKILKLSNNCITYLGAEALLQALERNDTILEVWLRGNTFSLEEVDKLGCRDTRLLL

As for `O=C(CCl)Nc1cccc(S(=O)(=O)N2CCCCCC2)c1`, the EC50 is 10.1 µM (active) with HEK293 [1]; 4.64 µM (inconclusive) with BJ [2]; 22 µM (active) in the test with BJ [4]; 19.6 µM (active) in [6]; 10.7 µM (active) in the test on BJ [9]; 9.38 µM (active) in [10]. Moreover, the concentration for a half-maximal effect (EC50) at Protein RecA is 22.6 µM (active). For the same molecule, the IC50 in the test on HEK293 [3] is 4.83 µM (active); in the test with HEK293 [5], > 20 µM (inactive); in the test on HEK293 [7] it was 8.19 µM (active); in the test on HEK293 [8] it was > 20 µM (inactive). Further, the AC50 in [11] is 11.8 µM (active); in test [12], 23.5 µM (active).

Take `COc1ccc(C(C)C)cc1S(=O)(=O)Nc1cccnc1`: the half-maximal inhibitory concentration (IC50) was > 100 µM (not active) in test [13] and > 100 µM (inactive) in test [14].

As to `COCCN(Cc1ccccc1)C(=O)c1cc(-c2ccc(OC)c(OC)c2)nc2ccccc12`, the EC50 (in the test with HEK293 [1]; in [6]) was > 20 µM (inactive) in each case. Besides, the IC50 in the test with HEK293 [3] is > 20 µM (inactive); with HEK293 [5], > 20 µM (inactive); in the test with HEK293 [7] it was > 20 µM (inactive); in the test on HEK293 [8] it was 16.3 µM (active).
